Source: PMC4312132, “Phenylalanine in the Pore of the Erwinia Ligand-Gated Ion Channel Modulates Picrotoxinin Potency but Not Receptor Function” (Biochemistry, 2014)
Where two headings read alike, the source gives them in different places.

How the values were obtained:
[1] = target: T1, wild type ELIC (Dickeya chrysanthemi, UniProt P0C7B7); assay: Inhibition of GABA-elicited currents of wild-type ELIC in Xenopus oocytes; assay type: cell-based, Erwinia chrysanthemii
T1 construct: expressed in transfected cells; host or cells: Xenopus laevis oocytes (cRNA injection)
Method: (§1) Xenopus laevis oocyte-positive females were purchased from NASCO (Fort Atkinson, WI) and maintained according to standard methods. Harvested stage V and VI Xenopus oocytes were washed in four changes of Ca^2+-free ND96 [96 mM NaCl, 2 mM KCl, 1 mM MgCl2, and 5 mM HEPES (pH 7.5)], defolliculated in 1.5 mg mL^–1 collagenase type 1A for approximately 2 h, washed again in four changes of ND96, and stored in ND96 at 16 °C containing 2.5 mM sodium pyruvate, […] gentamycin, and 0.7 mM theophylline.
ELIC (GenBank accession number ADN00343.1) was kindly provided by C. Ulens. For expression in Xenopus oocytes, it was cloned into pGEMHE with the signal sequence of the human α7 nACh receptor. Site-directed mutagenesis was performed with the QuikChange mutagenesis kit (Stratagene, La Jolla, CA). cRNA was transcribed in vitro from the linearized pGEMHE cDNA template using the mMessage mMachine T7 transcription kit (Ambion, Austin, TX). Stage V and VI oocytes were injected with 20 ng of cRNA, and currents were recorded 1–3 days postinjection.
Using two-electrode voltage clamp, Xenopus oocytes were clamped at −60 mV using an OC-725 amplifier (Warner Instruments, Hamden, CT), Digidata 1322A, and the Strathclyde Electrophysiology Software Package (Department of Physiology and Pharmacology, University of Strathclyde, Glasgow, U.K.). Currents were recorded at 5 kHz and filtered at a frequency of 1 kHz. Microelectrodes were fabricated from borosilicate glass (GC120TF-10, Harvard Apparatus, Edenbridge, Kent, U.K.) using a one-stage horizontal pull (P-87, Sutter Instrument Co., Novato, CA) and filled with 3 M KCl. Pipette resistances ranged from 1.0 to 2.0 MΩ. Oocytes were perfused with ND96 at a constant rate of 12 mL min^–1 with complete solution exchange within 5 s. Drug application was accomplished via a simple gravity-fed system calibrated to run at the same rate. Inhibition by test compounds was measured at the GABA EC50 for each mutant.
Analysis and curve fitting were performed using Prism version 4.03 (GraphPad Software, San Diego, CA). Concentration–response data for each oocyte were normalized to the maximal current for that oocyte and the mean ± standard error of the mean (SEM) for a series of oocytes pooled and plotted against agonist or antagonist concentration and iteratively fit to the four-parameter logistic equation. Statistical analysis was performed using a Student’s t test.

[2] = target: T2, Q2′N ELIC (Dickeya chrysanthemi, UniProt P0C7B7, Q232N); assay: Inhibition of GABA-elicited currents of Q2′N ELIC in Xenopus oocytes; assay type: cell-based, Erwinia chrysanthemii; conditions: Q2′N ELIC; inhibition curve
T2 construct: expressed in transfected cells; host or cells: Xenopus laevis oocytes (cRNA injection)

[3] = target: T3, T6′A ELIC (Dickeya chrysanthemi, UniProt P0C7B7, T236A); assay: Inhibition of GABA-elicited currents of T6′A ELIC in Xenopus oocytes; assay type: cell-based, Erwinia chrysanthemii; conditions: T6′A ELIC; inhibition curve
T3 construct: expressed in transfected cells; host or cells: Xenopus laevis oocytes (cRNA injection)
Method: as §1
(§2) ELIC (GenBank accession number ADN00343.1) was kindly provided by C. Ulens. For expression in Xenopus oocytes, it was cloned into pGEMHE with the signal sequence of the human α7 nACh receptor. […] Stage V and VI oocytes were injected with 20 ng of cRNA, and currents were recorded 1–3 days postinjection.
(§3) Using two-electrode voltage clamp, Xenopus oocytes were clamped at −60 mV using an OC-725 amplifier (Warner Instruments, Hamden, CT), Digidata 1322A, and the Strathclyde Electrophysiology Software Package (Department of Physiology and Pharmacology, University of Strathclyde, Glasgow, U.K.). Currents were recorded at 5 kHz and filtered at a frequency of 1 kHz. […] Inhibition by test compounds was measured at the GABA EC50 for each mutant. […]

[4] = target: T4, T6′S ELIC (Dickeya chrysanthemi, UniProt P0C7B7, T236S); assay: Inhibition of GABA-elicited currents of T6′S ELIC in Xenopus oocytes; assay type: cell-based, Erwinia chrysanthemii; conditions: T6′S ELIC; inhibition curve
T4 construct: expressed in transfected cells; host or cells: Xenopus laevis oocytes (cRNA injection)

[5] = target: T5, F16′A ELIC (Dickeya chrysanthemi, UniProt P0C7B7, F246A); assay: Inhibition of GABA-elicited currents of F16′A ELIC in Xenopus oocytes; assay type: cell-based, Erwinia chrysanthemii; conditions: F16′A ELIC; inhibition curve
T5 construct: expressed in transfected cells; host or cells: Xenopus laevis oocytes (cRNA injection)

[6] = target: T6, F16′D ELIC (Dickeya chrysanthemi, UniProt P0C7B7, F246D); assay: Inhibition of GABA-elicited currents of F16′D ELIC in Xenopus oocytes; assay type: cell-based, Erwinia chrysanthemii; conditions: F16′D ELIC; inhibition curve
T6 construct: expressed in transfected cells; host or cells: Xenopus laevis oocytes (cRNA injection)
Method: as §1, §2, §3

[7] = target: T7, F16′W ELIC (Dickeya chrysanthemi, UniProt P0C7B7, F246W); assay: Inhibition of GABA-elicited currents of F16′W ELIC in Xenopus oocytes; assay type: cell-based, Erwinia chrysanthemii; conditions: F16′W ELIC
T7 construct: expressed in transfected cells; host or cells: Xenopus laevis oocytes (cRNA injection)

[8] = target: T8, F16′S ELIC (Dickeya chrysanthemi, UniProt P0C7B7, F246S); assay: Inhibition of GABA-elicited currents of F16′S ELIC in Xenopus oocytes; assay type: cell-based, Erwinia chrysanthemii; conditions: F16′S ELIC
T8 construct: expressed in transfected cells; host or cells: Xenopus laevis oocytes (cRNA injection)

[9] = target: T9, F16′T ELIC (Dickeya chrysanthemi, UniProt P0C7B7, F246T); assay: Inhibition of GABA-elicited currents of F16′T ELIC in Xenopus oocytes; assay type: cell-based, Erwinia chrysanthemii; conditions: F16′T ELIC; inhibition curve
T9 construct: expressed in transfected cells; host or cells: Xenopus laevis oocytes (cRNA injection)

[10] = target: T10, F16′E ELIC (Dickeya chrysanthemi, UniProt P0C7B7, F246E); assay: Inhibition of GABA-elicited currents of F16′E ELIC in Xenopus oocytes; assay type: cell-based, Erwinia chrysanthemii; conditions: F16′E ELIC; inhibition curve
T10 construct: expressed in transfected cells; host or cells: Xenopus laevis oocytes (cRNA injection)

[11] = tested on: GLIC; parameters: method as in PMID 22677470, PMID 22208189; conditions: cited from earlier work
[12] = target: T1, wild type ELIC; conditions: previously identified; cited from earlier work

T1 sequence (P0C7B7 whole entry): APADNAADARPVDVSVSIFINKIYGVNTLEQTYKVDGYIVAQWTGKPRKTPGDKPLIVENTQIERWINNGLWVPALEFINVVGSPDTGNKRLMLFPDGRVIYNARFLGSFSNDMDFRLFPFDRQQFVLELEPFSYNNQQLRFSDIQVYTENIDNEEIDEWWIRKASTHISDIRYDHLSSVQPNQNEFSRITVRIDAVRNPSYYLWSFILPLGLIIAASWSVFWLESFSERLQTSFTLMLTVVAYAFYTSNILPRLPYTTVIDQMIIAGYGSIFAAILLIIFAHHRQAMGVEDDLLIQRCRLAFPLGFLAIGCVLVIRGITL
T7 sequence (P0C7B7 whole entry F246W): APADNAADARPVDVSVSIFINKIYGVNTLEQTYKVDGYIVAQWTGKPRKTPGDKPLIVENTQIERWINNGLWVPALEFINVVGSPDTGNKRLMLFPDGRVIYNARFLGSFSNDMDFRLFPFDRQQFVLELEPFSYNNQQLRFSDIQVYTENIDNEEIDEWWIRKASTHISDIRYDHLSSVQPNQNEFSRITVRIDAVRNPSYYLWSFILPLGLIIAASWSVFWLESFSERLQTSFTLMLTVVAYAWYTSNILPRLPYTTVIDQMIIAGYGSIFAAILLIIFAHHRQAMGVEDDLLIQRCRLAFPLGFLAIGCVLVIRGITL
T8 sequence (P0C7B7 whole entry F246S): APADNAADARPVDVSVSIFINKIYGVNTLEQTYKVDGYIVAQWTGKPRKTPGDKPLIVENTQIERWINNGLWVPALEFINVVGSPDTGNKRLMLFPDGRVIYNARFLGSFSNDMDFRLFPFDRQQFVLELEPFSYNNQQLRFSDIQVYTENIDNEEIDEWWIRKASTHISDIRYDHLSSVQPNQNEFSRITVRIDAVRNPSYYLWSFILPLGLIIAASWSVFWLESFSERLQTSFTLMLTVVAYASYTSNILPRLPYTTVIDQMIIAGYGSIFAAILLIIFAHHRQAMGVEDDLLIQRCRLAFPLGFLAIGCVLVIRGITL
T4 sequence (P0C7B7 whole entry T236S): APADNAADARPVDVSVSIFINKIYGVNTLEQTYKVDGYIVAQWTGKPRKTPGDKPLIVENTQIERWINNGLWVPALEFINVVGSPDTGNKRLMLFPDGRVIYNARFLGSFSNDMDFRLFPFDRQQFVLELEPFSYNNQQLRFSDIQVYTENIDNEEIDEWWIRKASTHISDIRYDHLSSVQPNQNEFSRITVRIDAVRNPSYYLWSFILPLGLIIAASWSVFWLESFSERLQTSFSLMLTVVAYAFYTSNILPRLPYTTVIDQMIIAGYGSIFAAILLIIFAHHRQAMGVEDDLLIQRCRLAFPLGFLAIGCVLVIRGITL
T3 sequence (P0C7B7 whole entry T236A): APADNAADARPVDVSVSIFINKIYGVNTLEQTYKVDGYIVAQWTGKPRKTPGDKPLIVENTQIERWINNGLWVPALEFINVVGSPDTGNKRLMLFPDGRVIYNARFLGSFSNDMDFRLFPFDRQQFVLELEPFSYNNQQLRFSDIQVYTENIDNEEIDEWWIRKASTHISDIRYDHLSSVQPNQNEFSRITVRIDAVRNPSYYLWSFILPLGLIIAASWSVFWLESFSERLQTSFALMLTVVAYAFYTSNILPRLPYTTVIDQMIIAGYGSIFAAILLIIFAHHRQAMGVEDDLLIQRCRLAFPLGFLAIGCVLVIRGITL
T2 sequence (P0C7B7 whole entry Q232N): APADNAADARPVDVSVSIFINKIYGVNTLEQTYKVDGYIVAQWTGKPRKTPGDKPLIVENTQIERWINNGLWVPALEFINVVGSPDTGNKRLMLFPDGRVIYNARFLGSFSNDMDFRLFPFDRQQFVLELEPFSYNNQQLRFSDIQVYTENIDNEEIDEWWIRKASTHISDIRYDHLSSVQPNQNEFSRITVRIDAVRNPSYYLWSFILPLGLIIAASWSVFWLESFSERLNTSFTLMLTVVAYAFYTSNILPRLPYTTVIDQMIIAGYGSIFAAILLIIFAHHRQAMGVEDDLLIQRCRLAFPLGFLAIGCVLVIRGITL
T6 sequence (P0C7B7 whole entry F246D): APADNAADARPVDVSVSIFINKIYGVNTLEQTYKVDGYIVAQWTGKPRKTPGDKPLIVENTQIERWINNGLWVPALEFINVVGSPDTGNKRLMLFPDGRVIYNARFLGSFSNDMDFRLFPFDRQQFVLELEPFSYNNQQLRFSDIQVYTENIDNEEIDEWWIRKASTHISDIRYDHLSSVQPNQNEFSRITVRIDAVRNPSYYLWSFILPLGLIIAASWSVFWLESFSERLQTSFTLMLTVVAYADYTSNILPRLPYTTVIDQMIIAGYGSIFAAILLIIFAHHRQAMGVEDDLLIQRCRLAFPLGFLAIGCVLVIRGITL
T9 sequence (P0C7B7 whole entry F246T): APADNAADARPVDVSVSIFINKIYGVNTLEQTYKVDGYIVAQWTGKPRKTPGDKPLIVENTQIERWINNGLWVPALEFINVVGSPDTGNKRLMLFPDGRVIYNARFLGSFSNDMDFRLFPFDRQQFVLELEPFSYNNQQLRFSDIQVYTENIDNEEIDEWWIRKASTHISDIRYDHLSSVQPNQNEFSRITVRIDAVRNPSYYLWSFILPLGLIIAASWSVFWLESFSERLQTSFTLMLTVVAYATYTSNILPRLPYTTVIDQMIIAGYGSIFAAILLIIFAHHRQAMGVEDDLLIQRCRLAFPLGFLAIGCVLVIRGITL
T5 sequence (P0C7B7 whole entry F246A): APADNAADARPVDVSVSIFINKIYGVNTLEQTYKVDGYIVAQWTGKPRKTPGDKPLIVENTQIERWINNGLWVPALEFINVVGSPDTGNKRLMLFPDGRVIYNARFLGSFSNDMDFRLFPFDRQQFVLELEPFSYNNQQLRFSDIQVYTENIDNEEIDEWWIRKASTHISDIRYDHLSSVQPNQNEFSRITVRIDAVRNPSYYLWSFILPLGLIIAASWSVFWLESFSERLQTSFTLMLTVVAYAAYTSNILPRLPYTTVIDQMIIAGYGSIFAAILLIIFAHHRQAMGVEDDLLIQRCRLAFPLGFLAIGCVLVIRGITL
T10 sequence (P0C7B7 whole entry F246E): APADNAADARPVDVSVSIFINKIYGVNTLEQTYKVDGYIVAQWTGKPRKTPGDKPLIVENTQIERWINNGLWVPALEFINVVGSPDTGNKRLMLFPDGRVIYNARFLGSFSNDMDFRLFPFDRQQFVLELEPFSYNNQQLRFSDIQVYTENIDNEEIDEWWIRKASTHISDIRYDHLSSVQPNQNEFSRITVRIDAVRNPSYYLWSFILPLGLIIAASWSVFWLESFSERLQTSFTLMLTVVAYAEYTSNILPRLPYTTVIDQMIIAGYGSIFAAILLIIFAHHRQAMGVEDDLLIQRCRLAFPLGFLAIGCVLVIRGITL

Structure (SMILES): C=C(C)[C@@H]1[C@H]2OC(=O)[C@@H]1[C@]1(O)C[C@H]3O[C@]34C(=O)O[C@H]2[C@]14C [PXN, Picrotoxinin]
- IC50 [1]: 72 µM
- inhibition at 100 µM ([1]; read-out: inhibition of the GABA EC50 response): ~50%
- nH ([1]; wild type ELIC, inhibition curve): 1.3 ± 0.3
- nH [2]: 1.6 ± 0.3
- nH [3]: 1.8 ± 0.4
- nH [4]: 1.3 ± 0.3
- nH [5]: 1.0 ± 0.2
- nH [6]: 1.0 ± 0.2
- inhibition at 100 µM ([7]; co-application of 100 μM PXN with GABA EC50, read-out: inhibition of the GABA EC50 response): ~50%
- nH ([7]; inhibition curve): 1.3 ± 0.3
- inhibition of the GABA EC50 response ([8]; co-application of 100 μM PXN with GABA EC50): completely abolishes
- nH ([8]; inhibition curve): 1.3 ± 0.3
- nH [9]: 0.9 ± 0.1
- nH [10]: 0.6 ± 0.1
- IC50 [11]: 2.6 µM

Structure (SMILES): CCCC(C(=O)OCCN(CC)CC)(c1ccccc1)c1ccccc1 [proadifen]
- IC50 ([1]; wild type ELIC, inhibition measured at the GABA EC50, read-out: IC50): 8.1 µM
- IC50 [12]: 8 µM
